These results are taken from patent US4950650A, “Novel arginine vasopressin-binding peptides” (University of Florida, priority 1988, dated 1990).

Experiment [1] concerns AVP receptor on splenic lymphocyte. The experiment is described as follows: Binding of 3H-AVP to receptor on splenic lymphocyte membranes. Conditions: for DPM (Mean ± SD): 300 nM 3H-AVP. Details: species or system mouse. The method, then: Membranes were prepared as previously described (Torres and Johnson [1988] supra). Freshly dissociated spleen cells were incubated on plastic at 37° C. for 1 hr to remove adherent cells. Plates were washed and non-adherent cells were incubated for an additional hour at 37° C. Washed non-adherent cells were resuspended in 50 mM Tris-HCl buffer (pH 7.4) containing 10 mM EGTA and 10 μM phenylmethylsulfonylfluoride (PMSF), which generally lysed any red blood cells in the preparation. Additional red blood cell lysis was performed using 10 mM potassium bicarbonate buffer containing 16 mM ammonium chloride and 100 μM ethylenediaminetetraacetic acid (EDTA). Cells were washed twice and sonicated on ice using a Fisher Model 300 Sonicator (Fisher Scientific, Pittsburgh, Penna.) with microprobe. Preparations were monitored microscopically and were sonicated until greater than 95% cell rupture was achieved. Sonicated preparations were centrifuged at 1000×g at 4° C. to remove debris and large particles. Supernatants were then spun at 33,000 rpm (55,000×g) at 4° C. for 45 min in a Sorvall UTD65B Ultracentrifuge (T1270 rotor) to isolate membranes. Resulting membrane preparations were resuspended in 50 mM Tris-HCl (pH 7.4) containing 10 mM MgCL2 and 10 μM PMSF, and aliquots were stored at -70° C.
Membranes (30 μg/ml) were incubated in a final volume of 200 μl with cold AVP and/or AVP-binding peptide for 20 min. prior to the addition of 300 nM ^3 H-AVP (specific activity, 70 Ci/mmol; New England Nuclear, Boston, Mass.). Binding was carried out at room temperature for 30 min., at which time samples were placed on ice to stop further binding. Membranes were washed through 0.45 μm filters (GVWP; Millipore, Bedford, Mass.) presoaked in 2% bovine serum albumin (BSA) with approximately 50× volume of ice cold reaction buffer (50 mM Tris-HCl, pH 7.4, 10 mM MgCl2, 2% BSA, 10 μM PMSF). Filters were then placed in scintillation vials and radioactivity was counted on a beta-scintillation counter.

The target of the next experiment is AVP (Homo sapiens, UniProt P01185). The experiment is described as follows: Solid matrix binding of 3H-AVP to immobilized AVP-binding peptide. The note with it: 3H-AVP binding to peptide coupled to a solid matrix, room temperature 1 hr; read-out: apparent KD. The method, then:
FIG. 1--Specific binding of ^3 H-AVP to AVP-binding peptide […] AVP-binding peptide (200 μl of a 2 mg/ml solution) was bound overnight at 4° C. onto 96-well Immulon plates (Dynatech, Alexandria, Va.). Plates were washed three times with phosphate-buffered saline containing 5% BSA and 0.1% TWEEN™ 20 (binding buffer). Remaining binding sites were bound by incubating plates at room temperature with 20 μl binding buffer/well for 2 hr. After extensive washing, cold AVP (10 μM) was added to the appropriate plates 20 min, prior to the addition of ^3 H-AVP. Solid matrix binding was carried out at room temperature for 1 hr. Plates were washed three times and counts were solubilized with 1 N NaOH. Counts were then placed in scintillation vials and counted on a beta-scintillation counter. Specific binding of ^3 H-AVP was the difference between the binding in the absence and presence of cold AVP.
Evidence for such direct interaction is provided by the binding data of FIG. 1, where ^3 H-AVP bound to the peptide coupled to a solid matrix with an apparent KD of approximately 50 nM. The binding was inhibited by excess cold AVP. We conclude that the peptide blocks AVP function through direct binding to AVP.

In experiment [2] the test system is PA helper signal for IFN production. Briefly: Pressinoic acid (PA) help in IFN production in helper cell depleted spleen cell cultures. In kind it is cell-based, mouse.

Where no end group is shown, it is not given here.

For `NC(=O)CC[C@@H]1NC(=O)[C@H](Cc2ccccc2)NC(=O)[C@H](Cc2ccc(O)cc2)NC(=O)[C@@H](N)CSSC[C@@H](C(=O)N2CCC[C@H]2C(=O)N[C@@H](CCCN=C(N)N)C(=O)NCC(N)=O)NC(=O)[C@H](CC(N)=O)NC1=O` [AVP, Arginine vasopressin], the “effect on binding of 300 nM 3H-AVP to lymphocyte receptors” value in experiment [1] (cold AVP as competitor) is “did compete and block”. Besides, the “DPM (Mean ± SD)” value in experiment [1] (competitor 0.1 μM, none = 4,965 ± 226) is given as 5,265 ± 476 DPM; in experiment [1] (competitor 1.0 μM) it was 4,209 ± 150 DPM; in experiment [1] (competitor 10.0 μM), 3,621 ± 347 DPM; in experiment [1] (competitor 100.0 μM), 3,577 ± 167 DPM.
Consider TMKVLTGSP [AVP-binding peptide], for which, at AVP, the Kd is approximately 0.05 µM.
Take pressinoic acid [PA]: the IFN in experiment [2] (Table 4, PA (10) (nm), no binding peptide) is reported as 105 ± 21 U/ml; in experiment [2] (Table 5, PA 3 nM, no complex), less than 3 U/ml; in experiment [2] (Table 5, PA 10 nM, no complex), 185 ± 21 U/ml; in experiment [2] (Table 5, PA 30 nM, no complex), 250 ± 71 U/ml.
